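Following 48 hours of exposure in 96-well plates, responses at five concentrations were used to interpolate endpoints linearly. Abbreviation: GI50, concentration required for 50% inhibition of growth.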 Activity calls are given as the source filed them. Rule as the data show it: active = GI50 up to about 1.1 µM and inactive = higher.

Test systems include SK-MEL-2; NCI-H23; SN12C; HOP-62; Hs-578T; K562; Malme-3M; TK-10; HCT-116; HT-29; NCI-H522; DMS-273; SNB-75; EKVX; NCI/ADR-RES; SR; M14; CCRF-CEM; MDA-MB-435; ACHN.
Common to all, as to assay: inhibition of tumour cell growth, NCI panel, 48 h

As to `CN(C)CC1CC/C(=C\c2ccc(O)cc2)C1=O` (stereo not given), the GI50 is 8280 nM (inactive) with SK-MEL-2; 6670 nM (inactive) with NCI-H23; 5640 nM (inactive) in the experiment with SN12C; 18500 nM (inactive) with HOP-62; 7110 nM (inactive) in the experiment on Hs-578T; 975 nM (active) with K562. Moreover, the GI50 in the experiment on Malme-3M is 2940 nM (inactive); in the experiment with TK-10, 3200 nM (inactive); in the experiment with HCT-116, 2000 nM (inactive); in the experiment on HT-29, 3040 nM (inactive); in the experiment with NCI-H522, 1470 nM (inactive); in the experiment with DMS-273, 3300 nM (inactive). The GI50 in the experiment on SNB-75 was 11000 nM (inactive); with EKVX, 4830 nM (inactive); in the experiment with NCI/ADR-RES, 5320 nM (inactive); in the experiment on SR, 931 nM (active); with M14, 2140 nM (inactive); in the experiment on CCRF-CEM, 933 nM (active). The GI50 with MDA-MB-435 is 5070 nM (inactive); in the experiment with ACHN, 3510 nM (inactive).

Take `C/C(=N\N=C(/S)N(C)C)c1cccc[n+]1[O-]`: the GI50 in the experiment on SK-MEL-2 is 38500 nM (inactive); with NCI-H23, 12600 nM (inactive); in the experiment with SN12C, 79100 nM (inactive); with HOP-62, 18000 nM (inactive); with Hs-578T, 92900 nM (inactive); with K562, 631 nM (active). The GI50 in the experiment on Malme-3M is 43700 nM (inactive); with TK-10, 82200 nM (inactive); in the experiment on HCT-116 it was 489 nM (active); with HT-29, 3050 nM (inactive); in the experiment on NCI-H522, 4050 nM (inactive); in the experiment with DMS-273, 12500 nM (inactive). For the same compound, the GI50 in the experiment on SNB-75 was 93100 nM (inactive); with EKVX, 25900 nM (inactive); in the experiment with NCI/ADR-RES, 2050 nM (inactive); with SR it was 1230 nM (inactive); in the experiment on M14, 25900 nM (inactive); in the experiment on CCRF-CEM, 565 nM (active). The values for the GI50 in the experiment on MDA-MB-435 and in the experiment with ACHN were 65800 nM (inactive) and 38200 nM (inactive), respectively.

Take `COc1ccc(Cc2cc(OC)c(OC)c(OC)c2)cc1`: the GI50 in the experiment on SK-MEL-2 is 218 nM (active); in the experiment on NCI-H23, 395 nM (active); with SN12C it was 671 nM (active); in the experiment with HOP-62, 411 nM (active); in the experiment on Hs-578T, 215 nM (active); in the experiment with K562, 66.5 nM (active). The GI50 was 387 nM (active) in the experiment on Malme-3M; 6790 nM (inactive) in the experiment on TK-10; 207 nM (active) with HCT-116; 124 nM (active) in the experiment on HT-29; 190 nM (active) with NCI-H522; 104 nM (active) with DMS-273. The GI50 with SNB-75 is 192 nM (active); with EKVX, 1140 nM (inactive); with NCI/ADR-RES, 146 nM (active); in the experiment on SR, 43.6 nM (active); in the experiment with M14 it was 411 nM (active); with CCRF-CEM, 165 nM (active). The GI50 was 23.6 nM (active) in the experiment with MDA-MB-435 and 771 nM (active) in the experiment with ACHN.
